# Values quoted from earlier work in patent publication US5093338A, “Lipophilic macrolide useful as an immunosuppressant” (Merck & Co., Inc., priority 1991, dated 1992).
# How the values were obtained:
# antibody production = details: rats
# [1] = tested on: heterotopic heart allografts
# [2] = rats given heterotopic heart allografts
# [3] = tested on: allergic encephalomyelitis; details: rats
# [4] = tested on: adjuvant-induced arthritis; details: rats
# transplantation = details: combination with Cyclosporin A; heart, kidney, bowel, pancreas or other transplantation
structure (smiles),measurement,setting,value
CO[C@H]1C[C@@H]2CC[C@@H](C)[C@@](O)(O2)C(=O)C(=O)N2CCCC[C@H]2C(=O)O[C@H]([C@H](C)C[C@@H]2CC[C@@H](O)[C@H](OC)C2)CC(=O)[C@H](C)/C=C(\C)[C@@H](O)[C@@H](OC)C(=O)[C@H](C)C[C@H](C)/C=C/C=C/C=C/1C [rapamycin],inhibiting antibody production,antibody production,"inhibiting the response to allergic encephalomyelitis,adjuvant-induced arthritis and antibody production"
same,immunosuppressive in rats given heterotopic heart allografts,[1],immunosuppressive
same,toxicity compared with that anticipated with FK-506,[2],less toxicity was experienced than would be anticipated with FK-506
same,inhibiting the response to allergic encephalomyelitis,[3],inhibiting the response to allergic encephalomyelitis
same,inhibiting the response to adjuvant-induced arthritis,[4],"inhibiting the response to allergic encephalomyelitis,adjuvant-induced arthritis"
same,amount of Cyclosporin A required for immunosuppressive effect in combination,transplantation,reducing the amount of Cyclosporin A required
